In patent publication US4620014A, “2-furylbutyrolactones and methods for using same” (priority 1983, dated 1986):
Where “and” joins values, the source holds several entries; their conditions need not be identical. Identical values can stand only once. Like-named read-outs stand apart in the source and are kept apart here.

Key:
[1] = system: spleen lymphocytes of C57BL/6 mice; assay: In vivo treatment, lymphocyte stimulation assay, C57BL/6 mice
Description: The purpose of this assay is to challenge lymphocytes in microcultures with one or more polyclonal mitogens at concentrations that will induce mitogenesis within 72 hours of stimulation.
In the mouse model, spleens are removed from different strains of mice and the spleen cells are teased free and suspended in RPMI-1640 tissue culture medium at a concentration of usually 1×10^7 ml. These cells are dispensed at a concentration of 5.0×10^5 cells per microculture well in a 96 well flat bottom 96 well tissue culture plate. All testing of the compounds of this invention or mitogens are done in replicates of 10. The cells are then treated with PHA, Con-A, specific antigens, or buffer only. If in vitro testing is done, varying concentrations of the compounds of this invention or buffer only are added to the cells as well. After treatment with the mitogens and/or compounds of this invention, the cells are incubated for 72 hours. The response of these cells to mitogens and/or the compounds of this invention is assessed using ^14 C-thymidine labeling on the fourth day at a concentration of 0.01 μCi/well. The labeled cells are harvested using a lymphocyte harvestor and placed onto fibrous paper discs. A scintillation cocktail is added to vials contaning the discs and the results are obtained using a LKB-liquid scintillation counter (Model 1216/Rackbeta II). The data is expressed as a ratio of the cpm of the mitogen stimulated group to the control (non-mitogen) treated group=lymphocyte stimulation index (LSI).
The lymphocyte stimulation assay may be performed directly on spleen cells obtained from various strains of mice not treated with the compounds of this invention or on lymphocytes obtained from […]. […] Alternatively, the mice may be treated in vivo with the compounds of this invention by intraperitoneal multi-dose schedules, followed by sacrifice and harvesting spleen lymphocytes. These cells are then tested for their response to polyclonal mitogens or specific antigens used to immunize the mice. In this sytem however, no additional compound is added to the in vitro lymphocyte stimulation assay system.
Two strains of mice, C57BL/6 and BDF1 are treated for seven days with i.p. administration of either 25, 50, 100, 200, or 400 mg/kg of Cpd. 1 or just buffer. This is followed on the eighth day by a lymphocyte stimulation assay.
A comparison is made of the lymphocyte response to C57BL/6 mice treated 4 days with i.p. administration of either 50, 100, 200, 400 or 800 mg/kg of Cpd. 1, 50, 100, 200, 400 or 800 mg/kg of ascorbic acid (AA), or just buffer. This is followed on the fifth day by a lymphocyte stimulation assay.
Two strains of mice, C57BL/6 and BALB/c, are treated 4 days with i.p. administration of either 50, 100, 200, or 400 mg/kg of Cpd. 1, or just buffer. This is followed on the fifth day by a lymphocyte stimulation assay.
C57BL/6 mice were treated with four daily i.p. doses of either 50, 100, 200, or 400 mg/kg of Cpd. 1 or just buffer. On the fifth day a lymphocyte stimulation assay was performed.
Mice of the C57BL/6 strain were tested with i.p. administration of either 100, 200, 400 or 600 mg/kg of Cpd. 1 or just buffer. This was followed by removal of spleens and treatment of lymphocytes therein with mitogens PHA and Con-A.
The compound of Example 2, Cpd. 2, was tested in vivo by using C57BL/6 mice and treating them with […] or just buffer for four consecutive days by the i.p. route. On the fifth day a lymphocyte stimulation assay was performed.

[2] = system: L5178Y tumor; settings: 100 mg/kg i.p., 7 days
Description: (§1) Ten days later the resultant tumor nodule, about 1 cm in size, is surgically excised. If the excision was successful, no subcutaneous tumors develop at the site of implantation. […] These mice are considered to be in the tumor dormant state.
(§2) The effect of Cpd. 1 on the emergence from the L5178Y tumor dormant state is studied by treating forty DBA/2 mice with Cpd. 1 after the mice have undergone the TDS inducing procedure. […] 1 at 100 mg/kg and the remaining twenty mice receive buffer only. A partial peritoneal lavage is performed twenty-five days after the last dose of Cpd. 1 and the peritoneal exudate fluid is plated out for determination of tumor cell numbers (tumor cell quantitative assay). Survival time is recorded out to 90 days after challenge with the viable L5178Y tumor cells. The percent mortality is calculated for each group.
(§3) The effect of Cpd. 1 on the emergence from the L5178Y tumor dormant state was studied by treating forty DBA/2 mice with Cpd. 1 after the mice had undergone the TDS inducing procedure. Two days after the mice were challenged with i.p. administration of 50,000 viable L5178Y tumor cells, twenty of these mice received seven consecutive days of i.p. treatment with Cpd. 1 at 100 mg/kg and the remaining twenty mice received buffer only. A partial peritoneal lavage was performed twenty-five days after the last dose of Cpd. 1 and the peritoneal exudate fluid was plated out for determination of tumor cell numbers (tumor cell quantitative assay). Survival time was recorded out to 114 days after challenge with the viable L5178Y tumor cells. The percent mortality was calculated for each group.

[3] = system: L5178Y tumor cells; settings: 100 mg/kg i.p., 7 days
Description: as §1, §2, §3

SMILES: Cc1ccc(C2(O)C(=O)OC3C(O)COC32O)o1.Cc1ccc(C2(O)C(=O)OC3C(O)COC32O)o1.O=C1CCC(=O)O1 (stereo not drawn) [Cpd. 1]
- T-lymphocyte proliferation, PHA ([1]; 200 mg/kg i.p., 7 days): stimulation of T-lymphocyte proliferation
- response to PHA ([1]; 400 mg/kg compared to 200 mg/kg, four daily doses): decrease in the response to PHA
- PHA response ([1]; 400 mg/kg i.p., 7 days): strong suppression of the PHA response
- Con-A response ([1]; 400 mg/kg i.p., 7 days, compared to 200 mg/kg): suppression of the Con-A response
- DNA synthesis of spleen cell lymphocytes ([1]; 400 mg/kg, compared to 200 mg/kg, 4 days): suppress DNA synthesis
- evidence of toxicity ([1]; 600 mg/kg i.p., five day administration): no evidence of toxicity
- stimulation of lymphocytes ([1]; 600 mg/kg, compared to 100 to 400 mg/kg, five days): less stimulation
- lymphocyte DNA synthesis, PHA and Con-A ([1]; 50, 100 and 200 mg/kg i.p., 4 days): tend to stimulate lymphocyte DNA synthesis
- Con-A response ([1]; 50, 100 and 200 mg/kg i.p., 7 days): increased
- response to polyclonal mitogens ([1]; 50-400 mg/kg i.p., four daily doses): Stimulation of the response to polyclonal mitogens
- effect, Con-A ([1]; 50 to 200 mg/kg i.p., 4 days): significant stimulatory effect
- lymphocyte DNA synthesis, PHA ([1]; 100 and 200 mg/kg i.p., 4 days): tend to stimulate lymphocyte DNA synthesis
- Con-A and PHA treated lymphocytes ([1]; 100 to 400 mg/kg, five days): significant stimulation
- DNA synthesis of spleen lymphocytes, PHA ([1]; 400 to 800 mg/kg i.p., 4 days): suppress DNA synthesis of spleen lymphocytes
- effect, Con-A ([1]; 400 to 800 mg/kg i.p., 4 days): significant anti-proliferative effect
- survival versus untreated controls [2]: significantly greater survival
- % Survival ([2]; 90 days post-challenge): 55.6%
- No. Survivors ([2]; 90 days post-challenge): 10
- % Survival ([2]; 114 days post-challenge): 82.6%
- No. Survivors ([2]; 114 days post-challenge): 19
- numbers of tumor cells recovered versus controls [3]: significant reduction in the numbers of tumor cells
- Frequency of mice, Treated Group ([3]; 1,000 to 100,000 tumor cells): 7 and 4
- % of Total, Treated Group ([3]; >100,000 tumor cells): 6% and 4.3%
- Frequency of mice, Treated Group ([3]; >100,000 tumor cells): 1
